Measurements published in PMC11241769, “Comprehensive Characterization of Phytochemical Composition, Membrane Permeability, and Antiproliferative Activity of Juglans nigra Polyphenols” (International Journal of Molecular Sciences, 2024).
Read-outs that look alike come from different tables or passages of the source.

Experiments:
[1] = PAMPA-BBB (parallel artificial membrane permeability assay, porcine polar brain lipid extract); type: in vitro ADME; conditions: for logPe PAMPA-BBB (n = 9): donor pH 7.4, acceptor pH 7.4, 37 °C, 4 h, n.d. = not detected in the acceptor phase; for Papp at 4 h, 100 µM: pig, PAMPA, pH 7.4, read-out: logPe PAMPA-BBB (n = 9) (converted)
Procedure: (§1) For the PAMPA-BBB test, 5 μL of porcine polar brain lipid extract (PBLE) solution (16.0 mg PBLE + 8.0 mg cholesterol dissolved in 600.0 μL n-dodecane) was applied for each well of the 96-well polycarbonate-based filter donor plates (top plate) (Multiscreen™-IP, MAIPN4510, pore size 0.45 μm; Merck). For the PAMPA-GI assay, the wells of the top plate were coated with 5 μL of the mixture of 16.0 mg phosphatidylcholine + 8.0 mg cholesterol dissolved in 600.0 μL n-dodecane. A measure of 150.0 μL of aliquots of the filtrated donor solutions were placed on the membrane. The 96-well PTFE acceptor plates (bottom plates) (Multiscreen Acceptor Plate, MSSACCEPTOR; Merck), were filled with 300.0 μL buffer solution (0.01 M PBS buffer, pH 7.4). The donor plate was placed upon the acceptor plate, and both plates were incubated together at 37 °C for 4 h in a Heidolph Titramax 1000 Vibrating platform shaker (Heidolph, Schwabach, Germany).
(§2) After incubation, sandwich plates were separated and the concentrations of each compound in the starting donor solution and in the acceptor and donor wells were determined in triplicate by UHPLC-DAD method described above. […] The effective permeability and the membrane retention in the PAMPA-BBB and the PAMPA GI experiments were calculated by Equations (4)–(7), respectively:(4) Pe=−2.303/A(t−τSS)·VA·VD/VA+VD·lg1−VA+VD/1−MR·VD×CAt/CD0 (5) Pe=−2.303/A(t−τSS)·1/1+ra·lg−ra+1+ra/1−MR×CDt/CD0 where Pe is the effective permeability coefficient (cm/s), A is the filter area (0.24 cm^2), VD and VA are the volumes in the donor (0.15 cm^3) and acceptor phases (0.30 cm^3), t is the incubation time (s), τSS is the time (s) to reach steady-state (240 s), CD(t) is the concentration (mol/cm^3) of the compound in the donor phase at time t, CD(0) is the concentration (mol/cm^3) of the compound in the donor phase at time 0, and MR is the estimated membrane retention factor (the estimated mole fraction of solute lost to the membrane), ra is the sink asymmetry ratio (gradient-pH-induced), defined as:(6) ra=VD/VA×Pe(A→D)/Pe(D→A) (7) MR=1−CDt/CD0−VA/VDCAt/CD0
(§3) All experiments were performed in three triplicates on three consecutive days (n = 9), caffeine standard was used as positive, while rutin as negative control. ClogP values were calculated by ChemAxon Marvin 22.3.

[2] = system: Vero E6 non-tumorous kidney cells; experiment: selectivity study: cytostatic activity on non-tumorous Vero E6 cells, Alamar Blue assay; type: cell-based, African green monkey (C. sabaeus)
Procedure: (§4) To determine the selectivity, we assessed the compounds on the Vero E6 non-tumorous kidney cells from African green monkeys (C. sabaeus), and their cytostatic activity was determined (Table 3).
(§5) For the selectivity study, a non-human primate cell culture was used. Vero E6 cells were established from kidney tissue sampled from an African green monkey (C. sabaeus) They originated from a primary culture initiated in March 1962 by Yoshihiro Yasumura at Chiba University in Japan. Vero E6 cells were obtained from the European Collection of Authenticated Cell Cultures (ECACC 85020206) and maintained in DMEM high-glucose (4.5 g/L) medium (Lonza, Basel, Switzerland) containing 10% FBS (Gibco, Thermo Fisher Scientific) and supplemented with 2 mM of L-glutamine (Lonza), 1 mM sodium pyruvate (Merck), and CellCultureGuard (PanReacApplichem, ITW Reagents, Darmstadt, Germany) at 37 °C in a humidified atmosphere of 5% CO2.
(§6) All cell cultures were maintained at 37 °C in a humidified atmosphere with 5% CO2. The cells were grown to confluence and then divided into 96-well tissue culture plates with the initial cell number of 5.0 × 10^3 cells/well. […] Control cells were treated with serum-free medium or DMSO (c = 1.0 v/v %) at the same conditions. After this incubation period, cells were washed twice with serum-free medium, and following that, they were cultured for another 72 h in a 10% serum-containing medium at 37 °C. After that, cell viability was determined using the Alamar Blue assay. Alamar Blue is a non-toxic, resazurin-based dye that living cells reduce to a fluorescent molecule, resorufin [99]. Resazurin sodium salt (Merck, Darmstadt, Germany) was dissolved in PBS at c = 0.15 mg/mL, pH 7.4). A measure of 22 uL of the dye was added to each well and incubated at 37 °C for 3 h until the pink color of the reduced dye appeared. Fluorescence intensity in each well was measured using a Synergy H4 multimode microplate reader (BioTek, Winooski, VT); at λex = 530/30 and λem = 610/10 nm.
(§7) The cytostasis values were expressed in the percentage of untreated control.

[3] = system: MDA-MB-231 human breast adenocarcinoma cells; experiment: in vitro cytostatic (antiproliferative) activity, Alamar Blue (resazurin) assay, MDA-MB 231; type: cell-based
Procedure: (§8) For the evaluation of the in vitro antiproliferative activity of the compounds, the cell viability was determined by resazurin (Alamar Blue) assay on MDA-MB 231 breast carcinoma, A2058 melanoma, and HT-29 colon carcinoma cell culture. The control wells were treated only with serum-free medium.
(§9) The cytostatic effect of the compounds was studied on tumor cell cultures in vitro. MDA-MB-231 human breast adenocarcinoma cells were cultured in DMEM medium supplemented with 10% FBS, 2 mM L-glutamine, penicillin–streptomycin antibiotics mixture (50 IU/mL, and 50 μg/mL, respectively), 1 mM sodium pyruvate, and 1% non-essential amino acid mixture. A2058 human melanoma cells, and HT-29 colorectal carcinoma cells were cultured in RPMI medium supplemented with 10% FBS, 2 mM L-glutamine, and penicillin–streptomycin antibiotics mixture (50 IU/mL and 50 μg/mL, respectively). Cell lines were generous gifts from Dr. József Tóvári (Department of Experimental Pharmacology, National Institute of Oncology, Budapest, Hungary).
as §6, §7

[4] = PAMPA-GI (parallel artificial membrane permeability assay, phosphatidylcholine membrane); type: in vitro ADME; conditions: for logPe PAMPA-GI (n = 9): donor pH 6.8, acceptor pH 7.4, 37 °C, 4 h, n.d. = not detected in the acceptor phase; for Papp at 4 h, 100 µM: PAMPA, read-out: logPe PAMPA-GI (n = 9) (converted)
Procedure: as §1, §2, §3

[5] = system: A2058 human melanoma cells; experiment: in vitro cytostatic (antiproliferative) activity, Alamar Blue (resazurin) assay, A2058; type: cell-based
Procedure: as §8, §9, §6, §7

[6] = system: HT-29 colorectal carcinoma cells; experiment: in vitro cytostatic (antiproliferative) activity, Alamar Blue (resazurin) assay, HT-29; type: cell-based; conditions: Homo sapiens
Procedure: as §8, §9, §6, §7

[7] = chemical stability in the aqueous solutions/buffer of the PAMPA experiments (UHPLC-DAD); conditions: PAMPA, 100 µM
Procedure: Quantities of the isolated compounds in the PAMPA experiments (14, 58, 74, 86, 92, 106, 141, and 143) were determined by UHPLC-DAD. The Juglans extracts were analyzed by an ACQUITY UPLC H-Class PLUS System equipped with a quaternary solvent delivery pump (QSM), an auto-sampler manager (FTN), a column compartment (CM), and a photodiode array (PDA) detector (Waters Corporation). An Acquity BEH C18 column (100 × 2.1 mm i.d., 1.7 µm; Waters Corporation) maintained at 30 °C was used as stationary phase. Eluent A was 0.3% acetic acid in water and eluent B was acetonitrile, the following gradient elution was applied (flow rate: 0.3 mL/min): 5.0–100.0% B (0.0–11.0 min), 100.0–5.0% B (11.0–11.5 min), 5% B (11.5–15.0 min). The injection volume was 5 µL and chromatograms were recorded at 200–400 nm. The chromatograms acquired at the UV absorption maxima of each compound were used for data evaluation.
Stock solutions (10 mM in methanol) were diluted with the defined buffer (pH 7.4 for the PAMPA-BBB and pH 6.8 for the PAMPA-GI assays) to obtain the donor solutions (composition: 594.0 μL buffer + 6.0 μL stock solution). The buffers were prepared as follows: pH = 6.8: 20.2 g Na2HPO4 ∙ 7H2O and 3.4 g NaH2PO4 ∙ H2O dissolved in distilled water to achieve the final volume of 1000.0 mL, pH adjustment with 0.5 M NaOH or 0.5 M HCl; pH = 7.4: one PBS tablet (Phosphate Buffered Saline, pH 7.4; Sigma Aldrich) dissolved in 200.0 mL distilled water. Donor solutions were filtered through Phenex-RC 15 mm, 0.2 μm syringe filters (Gen-Lab Ltd., Budapest, Hungary).

[8] = system: MDA-MB 231, A2058, HT-29 and Vero E6 cells; experiment: in vitro cytostasis, Alamar Blue assay, cell lines taken together; type: cell-based; conditions: for effect on the tumor cell lines: tumor cell lines (MDA-MB 231, A2058, HT-29)
Procedure: as §8, §4, §9, §5, §6, §7

[9] = Chlorocebus sabaeus, Vero C1008, in vitro cytostatic activity, Alamar Blue assay, Vero E6 non-tumorous kidney cells, read-out: IC50 (µM) VERO E6 Non Tumorous
[10] = in vitro cytostatic activity, Alamar Blue (resazurin) assay, MDA-MB 231 breast carcinoma cell culture, read-out: IC50 (µM) MDA-MB 231
[11] = in vitro cytostatic activity, Alamar Blue (resazurin) assay, A2058 melanoma cell culture, read-out: IC50 (µM) A2058
[12] = in vitro cytostatic activity, Alamar Blue (resazurin) assay, HT-29 colon carcinoma cell culture, read-out: IC50 (µM) HT-29
[13] = Chlorocebus sabaeus, Vero C1008, read-out: IC50 (µM) VERO E6 Non Tumorous
[14] = MDA-MB-231, read-out: IC50 (µM) MDA-MB 231
[15] = A2058, read-out: IC50 (µM) A2058
[16] = HT-29, read-out: IC50 (µM) HT-29

| Compound | logPe PAMPA-BBB (n = 9) [1] | IC50 [2, 9] [µM] | IC50 [3, 10] [µM] | logPe PAMPA-GI (n = 9) [4] | IC50 [5, 11] [µM] | IC50 [6, 12] [µM] | effect on the tumor cell lines [8] | further results |
| --- | --- | --- | --- | --- | --- | --- | --- | --- |
| O=C(O)c1cc(O)c(O)c(O)c1 [Compound 14, gallic acid] | not detected in the acceptor phase | 49.9 ± 2.8 | 49.8 ± 3.5 | not detected in the acceptor phase | 57.2 ± 4.7 | 71.2 ± 7.9 | – | – |
| CCOC(=O)c1cc(O)c(O)c(O)c1 [Compound 58, ethyl gallate] | – | 82.1 ± 5.7 | > 100 | – | 102.5 ± 0.7 | > 100 | – | Papp at 4 h, 100 µM [1]: 1.7 ×10⁻⁶ cm/s; Papp at 4 h, 100 µM [4]: 3.72 ×10⁻⁶ cm/s; inhibition at 100 µM ([5]; read-out: % inhibition at 100 µM, 100 µM, A2058 cell culture): 56.4%; additional minor compounds appeared in the aqueous solutions prepared for the PAMPA experiments [7]: < 5% |
| O=C(OCC1OC(OC2CCC(=O)c3ccc(O)c(O)c32)C(O)C(O)C1O)c1cc(O)c(O)c(O)c1 [Compound 92, 1,2,3,4-tetrahydro-7,8-dihydroxy-4-oxonaphthalen-1-yl-6-O-[(3,4,5-trihydroxyphenyl)carbonyl]-β-D-glucopyranoside] | not detected in the acceptor phase | 61.1 ± 5.3 | > 100 | not detected in the acceptor phase | > 100 | > 100 | no effect | – |
| CC1OC(Oc2c(-c3ccc(O)c(O)c3)oc3cc(O)cc(O)c3c2=O)C(O)C(O)C1O (stereo not shown) [Compound 106, quercetin-3-O-rhamnoside (quercitrin)] | not detected in the acceptor phase | – | – | not detected in the acceptor phase | – | – | no effect | IC50 ([2]; Chlorocebus sabaeus, Vero C1008, read-out: IC50 (cytostatic activity) on the Vero E6 cells): 15.9 µM |
| O=c1oc2c(O)c(O)cc3c(=O)oc4c(O)c(O)cc1c4c23 [Compound 143, ellagic acid] | less than −6.0 | > 100 | > 100 | less than −6.0 | > 100 | > 100 | – | Papp at 4 h, 100 µM [1]: 0.224 ×10⁻⁶ cm/s; IC50 (cytostatic activity) on the Vero E6 cells ([2]; Vero E6 non-tumorous kidney cells, selectivity): not cytostatic; Papp at 4 h, 100 µM [4]: 0.741 ×10⁻⁶ cm/s; inhibition at 100 µM ([6]; read-out: % inhibition at 100 µM, 100 µM, HT-29 cell culture): 33%; IC50 ([6]; HT-29 colon carcinoma, treatment overnight, then 72 h culture, Alamar Blue, read-out: IC50 on HT-29 cell culture): 12.1 µM |
| COc1cccc2c1C(=O)c1c(O)c3c(c(O)c1C2=O)C[C@@](O)(C(C)=O)C[C@@H]3O[C@H]1C[C@H](N)[C@H](O)[C@H](C)O1 [Daunomycin, daunomycin, reference compound] | – | – | – | – | – | – | – | IC50 [2, 13]: 1.1 ± 0.05 µM; IC50 [3, 14]: 0.7 ± 0.1 µM; IC50 ([8]; read-out: IC50 value (50% inhibition) in all cell lines): 0.2 to 1.1 µM; IC50 [5, 15]: 0.9 ± 0.1 µM; IC50 [6, 16]: 0.2 ± 0.05 µM |
| CC1OC(Oc2c(-c3cc(O)c(O)c(O)c3)oc3cc(O)cc(O)c3c2=O)C(O)C(O)C1O (stereo not shown) [myricetin-3-O-rhamnoside (86)] | – | 3.7 ± 0.7 | > 100 | – | > 100 | > 100 | – | – |
| CC1OC(Oc2c(-c3ccc(O)c(O)c3)oc3cc(O)cc(O)c3c2=O)C(O)C(O)C1O (stereo not shown) [quercetin-3-O-rhamnoside (106)] | – | – | – | – | – | – | – | IC50 [2, 13]: 15.9 ± 0.7 µM; IC50 [3, 14]: > 100 µM; IC50 [5, 15]: > 100 µM; IC50 [6, 16]: > 100 µM |
| O=c1c(OC2OCC(O)C(O)C2O)c(-c2ccc(O)c(O)c2)oc2cc(O)cc(O)c12 (stereo not shown) [quercetin-3-O-xyloside (74)] | – | > 100 | > 100 | – | > 100 | > 100 | – | – |
| myricetin-3-O-rhamnoside (myricitrin) [Compound 86] | – | – | – | – | – | – | no effect | IC50 ([2]; Vero E6 non-tumorous kidney cells, selectivity, read-out: IC50 (cytostatic activity) on the Vero E6 cells): 3.7 µM |
